Read-outs that look alike come from different tables or passages of the source.
Columns and labels:
[1] = VP343 metabolites' identification by LC-MS in hepatic microsome supernatants; type: in vitro ADME; conditions: supernatants of mouse, dog and human hepatic microsomes incubated with VP343 for 45 min
Protocol: The metabolites' identification of VP343 was performed after incubation of the compound with hepatic microsomal preparations from mouse, dog and human origin. The assay was performed by mixing VP343 at 5; 4; 2 or 1 μM with CD1 mouse hepatic microsomes (reference MIC255030 Biopredic) at 0.5 mg/mL of protein, or Beagle dog hepatic microsomes (reference MIC257013 Biopredic) at 1 mg/mL of protein, or human hepatic microsomes (reference MIC159882 Biopredic) at 1 mg/mL of protein, together with 1 mM NADPH (reference N1630 Sigma Aldrich), a phase I reaction's cofactor, in a 0.1 M phosphate buffer pH 7.4. Samples were then incubated in a Thermomixer® (Eppendorf) at 37° C. and 300 rotations per minute. After 45 minutes of incubation, the reaction was stopped with acetonitrile (0.5 volume of the experimental incubation volume). […]
In each analytical system, the identification was performed in two steps. […] This means that, in a define range mass (m/z 250 to 450), each ion present in the sample should be detected. […] By adding collision energy, the products ions of the targeted metabolites were monitored to validate the supposed metabolite's structure obtained after injecting the sample in full scan mode.
To further investigate the number and nature of the metabolites, supernatants from mouse, dog and human hepatic microsomes incubated with VP343 for 45 min were analyzed by LC-MS (cf. protocol).

[2] = Incubation of VP343 with mouse hepatic microsomes (LC-MS); type: in vitro ADME; conditions: t = 45 min
Protocol: (§1) The metabolites' identification of VP343 was performed after incubation of the compound with hepatic microsomal preparations from mouse, dog and human origin. The assay was performed by mixing VP343 at 5; 4; 2 or 1 μM with CD1 mouse hepatic microsomes (reference MIC255030 Biopredic) at 0.5 mg/mL of protein, or Beagle dog hepatic microsomes (reference MIC257013 Biopredic) at 1 mg/mL of protein, or human hepatic microsomes (reference MIC159882 Biopredic) at 1 mg/mL of protein, together with 1 mM NADPH (reference N1630 Sigma Aldrich), a phase I reaction's cofactor, in a 0.1 M phosphate buffer pH 7.4. Samples were then incubated in a Thermomixer® (Eppendorf) at 37° C. and 300 rotations per minute. After 45 minutes of incubation, the reaction was stopped with acetonitrile (0.5 volume of the experimental incubation volume). The samples' supernatants were then separated from the microsomes by centrifugation at 20,000 g during 10 minutes (Sorvall ST 16, Thermo Fisher Scientific) before analysis by liquid chromatography coupled to mass spectrometry (LC-MS).
(§2) The analysis was performed in two steps: first, on a positive electrospray ionisation source using a Waters Acquity I class UPLC (Ultra Performance Liquid Chromatography) system coupled to a Waters triple quadrupole mass spectrometer (Xevo TQMS) and then on an orbitrap source using a Thermo Fisher UHPLC (Ultra High Performance Liquid Chromatography) system (Ultimate 3000) coupled to a Thermo Fisher orbitrap mass spectrometer (Q Exactive) to confirm the structures of the identified metabolites. VP343 and his metabolites were separated by the UPLC system with a six minutes gradient of acetonitrile containing 0.1% of formic acid in a BEH C18 column (1.7 μm, 2.1×50 mm, Waters) with a mobile phase flow rate of 0.6 mL/min.
The metabolization of VP343 was studied by incubating the compound with mouse, dog, and human hepatic microsomes. The concentration of VP343 in the microsomal preparations was measured at t=0 and at t=45 min by liquid chromatography-tandem mass spectrometry (LC-MS). […]

[3] = test system: L. donovani (MHOM/ET/67/HU3) amastigotes; experiment: In vivo antileishmanial evaluation, Leishmania donovani/Balb/c mouse model (liver parasite load); conditions: for % reduction of parasite burden in the liver / LDU ± SD (parasites in the liver): Balb/c mice
Protocol: Compounds VP343, VP370 were evaluated in vivo for their antileishmanial properties by oral and intravenous route on the Leishmania donovani/Balb/c mouse model, comparatively to miltefosine, used as reference drug, according to a previously described protocol (Balaraman et al., 2015). Six- to eight-week-old Balb/c mice (Élevages Janvier, Le Genest Saint Isle, France) were infected intravenously on day 1 with 10^7 L. donovani (MHOM/ET/67/HU3) amastigotes derived from the spleen of hamsters and randomly sorted into four groups of 10 mice and one group of 12 mice as infected controls but not treated. The treatment administered orally or intravenously, started one week post-infection, on day 8, and continued for 5 consecutive days. At day 15, all groups of mice were autopsied and livers and spleens were weighed. Parasite load in the liver was determined by counting the number of amastigotes/500 liver cells in Giemsa-stained impression smears prepared from the liver and applying Stauber's formula. Three researchers counted the slides independently and the results are expressed as the mean values±SD. The parasite burden of treated groups and controls were compared using Student's t-test or the Kruskal-Wallis nonparametric analysis of variance test for comparing two groups. Significance was established for a P value<0.05.

[4] = test system: L. infantum intramacrophagic amastigotes; experiment: L. donovani infantum/RAW 264.7 macrophage model (intramacrophagic amastigotes, SYBR Green I); type: cell-based, Leishmania donovani infantum; conditions: Leishmania infantum, Macrophage
Protocol: Protocol for Evaluation on the L. donovani infantum/RAW 264.7 Macrophage Model (Intramacrophagic Amastigotes)
Mouse macrophage cells RAW 264.7 (ATCC) were seeded into a 96-well microplate and maintained in DMEM medium (Applied Biosystems, France) supplemented with 10% heat-inactivated fetal bovine serum in a 5% CO2 incubator at 37° C. for 24 h. Then, the medium was replaced with 100 μL fresh medium containing a suspension of 10^5 L. infantum amastigotes and the incubation time was 16 h. Then, extracellular parasites were eliminated from the medium and 100 μL fresh medium containing compound in various concentrations were added for a 48 h-incubation. Parasite growth was determined by using SYBR® Green I (Life technology, Fisher Scientific, France), a dye with marked fluorescence enhancement upon contact with DNA. The cell lysis suspension was diluted 1:1 in lysis buffer (10 mM NaCl, 1 mM Tris HCl pH8, 2.5 mM EDTA pH 8, 0.05% SDS, 0.01 mg/mL proteinase K and 10×SYBR Green I). Incorporation of SYBR Green I in DNA amplification was measured using the Master epRealplex cycler® (Eppendorf, France) according to the following program to increase the SYBR green incorporation: 90° C. for 1 min, decrease in temperature from 90° C. to 10° C. for 5 min with reading the fluorescence at 10° C. for 1 min and a new reading at 10° C. for 2 min. The EC50 as the concentration inhibiting the parasite growth by 50% was calculated by nonlinear regression using icestimator website 1.2 version: http://www.antimalarial-icestimator.net/MethodIntro.htm.

[5] = Incubation of VP343 with dog hepatic microsomes (LC-MS); type: in vitro ADME; conditions: for VP343 residual concentration: t = 45 min
Protocol: as §1, §2
The metabolization of VP343 was studied by incubating the compound with mouse, dog, and human hepatic microsomes. The concentration of VP343 in the microsomal preparations was measured at t=0 and at t=45 min by liquid chromatography-tandem mass spectrometry (LC-MS). About 5% to 50% of VP343 remained after 45 min of incubation with mouse microsomes according to experiments (Table VI and FIG. 3, respectively). About 5% of VP343 remained with dog microsomes. About 40 to 55% remained with human microsomes.

[6] = intravenous route, 10 mg/kg/day × 5

COc1ccc(Br)cc1CN(C)C12CC3CC(CC(C3)C1)C2 [VP343]
Number of metabolites detected [1]: 11
VP343 residual concentration ([2]; initial concentration 1 μM): 0.08 µM
VP343 residual concentration ([2]; initial concentration 2 μM): 0.09 µM
VP343 residual concentration ([2]; initial concentration 4 μM): 0.25 µM
Activity in vivo by intravenous route (in words) ([3]; 10 mg/kg/day×5 intravenous, Dunn's multiple comparisons test): significantly active
% reduction of parasite burden in the liver [3, 6]: 42.4%
LDU ± SD (parasites in the liver) [3, 6]: 0.19 ± 0.09 ×10^8
% reduction of parasite burden in the liver ([3]; oral route, 10 mg/kg/day × 5): 60.2%
LDU ± SD (parasites in the liver) ([3]; oral route, 10 mg/kg/day × 5, autopsy day 15): 0.49 ± 0.07 ×10^9
% reduction of parasite burden in the liver ([3]; oral route, 20 mg/kg/day × 5): 70.8%
LDU ± SD (parasites in the liver) ([3]; oral route, 20 mg/kg/day × 5, autopsy day 15): 0.36 ± 0.08 ×10^9
Activity in vivo by oral route (in words) ([3]; VP343 and VP370 at 20 mg/kg/day×5, VP343 also at 10 mg/kg/day×5, Tukey's multiple comparisons test): significantly active
IC50 ([4]; Table II, 3 different experiments, SYBR Green I method, read-out: IC50 intramacrophagic): 0.04 µM
IC50 ([4]; cf. Table II, read-out: IC50 (intramacrophage amastigotes)): 0.04 µM
VP343 remaining after incubation ([5]; 45 min): About 5%
VP343 residual concentration ([5]; initial concentration 1 μM): 0.03 µM
VP343 residual concentration ([5]; initial concentration 2 μM): 0.09 µM
VP343 residual concentration ([5]; initial concentration 4 μM): 0.12 µM

From US20200281873A1, “Adamantane or Bicyclic Monoterpenoid Derivatives for Use in the Treatment of Leishmaniasis” (Commissariat a l'Energie Atomique et aux Energies …, priority 2017, published 2020)
